Where two headings read alike, the source gives them in different places.
Key:
Assay type in all cases: in vivo
Bombyx mori L. = experiment: Toxicity test on 2nd-instar larvae of Bombyx mori L., leaf immersion feeding method; details: 1000 ppm, 24 hours
How it was run: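 Second-instar silkworm larvae (~35 per vessel, 3 replicates) fed mulberry leaves dipped 5 s in 1000 ppm compound (0.05% Tween-80; DMSO stock diluted), held at 25 °C. Deaths counted after 24 hours; mortality % corrected against Tween-80 control survivors.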

Apis cernan = experiment: Toxicity test on adult worker bees of Apis cernan, small beaker method; details: 500 ppm, 48 hours
How it was run: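 Same-size adult Apis cernan workers, collected the test morning, exposed in groups of 15 to cotton soaked with 500 ppm test liquid (small beaker method). Kept sealed in a dark climate box; live and dead bees counted after 48 h.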

Spodoptera exigua = experiment: whole plant or invertebrate; details: Spodoptera exigua, 24 h, read-out: Spodoptera exigua Mortality (%) 500 ppm
How it was run: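 Leaf immersion feeding: second-instar larvae (about 35 per vessel, triplicate) kept at 28° C on discs treated with 500 ppm test solution in 0.05% Tween-80. Mortality at 24 h, calculated relative to surviving larvae in the solvent control.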

Plutella xylostella = experiment: whole plant or invertebrate; details: Plutella xylostella, read-out: Plutella xylostella Mortality (%) 500 ppm
How it was run: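 Leaf immersion feeding test: 2nd-instar larvae (about 35 per vessel, 3 replicates) kept at 28° C. on 1.0 cm cabbage discs soaked 5 s in a 500 ppm solution with 0.05% Tween-80. Mortality after 24 h of exposure, calculated relative to live larvae in the Tween-80 control.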

Aphis craccivora = experiment: whole plant or invertebrate; details: Aphis craccivora, 24 h, read-out: Aphis craccivora Mortality (%) 500 ppm
How it was run: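 Mortality scored 24 h after treatment as the reduction in live aphids versus a 0.05% Tween-80 control; three replicates, 23° C. Treatment was a 5 s immersion of wingless adults on bean sprouts in 500 ppm test solution containing 0.05% Tween-80, followed by air-drying.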

Solenopsis invicta = experiment: whole plant or invertebrate; details: Solenopsis invicta, water test tube poison-feeding
How it was run: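 Mortality (%) of Solenopsis invicta, computed against live counts in control tubes, was recorded 24 h and 72 h after treatment at 25 °C. Compound was offered by oral feeding in test tubes at 100 ppm, diluted from a 10 g/L DMSO stock into water with 5% honey and 0.05% Tween-80.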

[1] = 24 h, read-out: Solenopsis invicta Mortality (%) 100 ppm 24 h, 100 ppm, 24 h
[2] = 72 h, read-out: Solenopsis invicta Mortality (%) 100 ppm 72 h, 100 ppm, 72 h

SMILES | Toxicity determination Bombyx mori L. Mortality (%) (Bombyx mori L.) | Toxicity determination Apis cernan Mortality (%) (Apis cernan) | mortality at 500 ppm (Spodoptera exigua) [%] | mortality at 500 ppm (Plutella xylostella) [%] | mortality at 500 ppm (Aphis craccivora) [%] | mortality at 100 ppm (Solenopsis invicta; [1]) [%] | mortality at 100 ppm (Solenopsis invicta; [2]) [%]
C=CC1Nc2cc(C#N)nn2-c2c(Cl)cc(C(F)(F)F)cc21 (stereo not shown) [Compound C4] | 3 | 0 | 76 | 86 | 100 | 20 | 87
C=CC1(CCl)Nc2c(-c3ccccc3C(F)(F)F)c(C#N)nn2-c2c(Cl)cc(C(F)(F)F)cc21 (stereo not shown) [Compound C9] | 8 | 9 | 100 | 100 | 100 | 39 | 100
C=CC1(CCl)Nc2c(-c3cc(C)oc3C)c(C#N)nn2-c2c(Cl)cc(C(F)(F)F)cc21 (stereo not shown) [Compound C10] | 10 | 9 | 85 | 100 | 100 | 27 | 100
C=CC1(CCl)Nc2c([S+]([O-])C(F)(F)F)c(C#N)nn2-c2c(Cl)cc(C(F)(F)F)cc21 (stereo not shown) [Compound C13] | 12 | 10 | 100 | 100 | 100 | 32 | 100
C=CC1(CC(F)(F)F)Nc2c([S+]([O-])C(F)(F)F)c(C#N)nn2-c2c(Cl)cc(C(F)(F)F)cc21 (stereo not shown) [Compound C14] | 10 | 10 | 100 | 100 | 100 | 30 | 100
C=CC1(C(F)(F)F)Nc2c([S+]([O-])C(F)(F)F)c(C#N)nn2-c2c(Cl)cc(C(F)(F)F)cc21 (stereo not shown) [Compound C15] | 8 | 7 | 100 | 89 | 100 | 29 | 90
C=CC1(CCl)Nc2c([S+](C)[O-])c(C#N)nn2-c2c(Cl)cc(C(F)(F)F)cc21 (stereo not shown) [Compound C18] | 6 | 5 | 86 | 90 | 98 | 20 | 70
C=CC1(CC#N)Nc2c([S+]([O-])C(F)(F)F)c(C#N)nn2-c2c(Cl)cc(C(F)(F)F)cc21 (stereo not shown) [Compound C20] | 8 | 10 | 100 | 100 | 100 | 28 | 99
N#CCC1(CO)Nc2c([S+]([O-])C(F)(F)F)c(C#N)nn2-c2c(Cl)cc(C(F)(F)F)cc21 (stereo not shown) [Compound C24] | 11 | 10 | 100 | 100 | 100 | 36 | 100
CC[S+]([O-])c1c(C#N)nn2c1NC(CO)(CC#N)c1cc(C(F)(F)F)cc(Cl)c1-2 (stereo not shown) [Compound C25] | 3 | 0 | 97 | 92 | 86 | 25 | 71
C[S+]([O-])c1c(C#N)nn2c1NC(CO)(CC#N)c1cc(C(F)(F)F)cc(Cl)c1-2 (stereo not shown) [Compound C26] | 4 | 4 | 90 | 89 | 100 | 20 | 80
CN(C)CC1(CC#N)Nc2c([S+]([O-])C(F)(F)F)c(C#N)nn2-c2c(Cl)cc(C(F)(F)F)cc21 (stereo not shown) [Compound C29] | 0 | 4 | 93 | 100 | 100 | 30 | 100
N#CCC1(C(=O)O)Nc2c([S+]([O-])C(F)(F)F)c(C#N)nn2-c2c(Cl)cc(C(F)(F)F)cc21 (stereo not shown) [Compound C30] | 0 | 0 | 90 | 100 | 92 | 24 | 100
COC(=O)C1(CC#N)Nc2c([S+]([O-])C(F)(F)F)c(C#N)nn2-c2c(Cl)cc(C(F)(F)F)cc21 (stereo not shown) [Compound C31] | 3 | 8 | 100 | 100 | 100 | 34 | 100
N#CCC1(C(N)=O)Nc2c([S+]([O-])C(F)(F)F)c(C#N)nn2-c2c(Cl)cc(C(F)(F)F)cc21 (stereo not shown) [Compound C32] | 6 | 9 | 90 | 100 | 95 | 25 | 100
CNC(=O)C1(CC(=O)OC)Nc2c([S+]([O-])C(F)(F)F)c(C#N)nn2-c2c(Cl)cc(C(F)(F)F)cc21 (stereo not shown) [Compound C35] | 4 | 4 | 100 | 100 | 100 | 38 | 100
N#Cc1nn2c(c1[S+]([O-])C(F)(F)F)NC(CC(=O)O)(C(=O)O)c1cc(C(F)(F)F)cc(Cl)c1-2 (stereo not shown) [Compound C36] | 2 | 3 | 90 | 90 | 100 | 10 | 90
COC(=O)CC1(C(=O)OC)Nc2c([S+]([O-])C(F)(F)F)c(C#N)nn2-c2c(Cl)cc(C(F)(F)F)cc21 (stereo not shown) [Compound C37] | 6 | 8 | 100 | 100 | 100 | 20 | 100
N#Cc1nn2c(c1[S+]([O-])C(F)(F)F)NC(CC(N)=O)(C(N)=O)c1cc(C(F)(F)F)cc(Cl)c1-2 (stereo not shown) [Compound C38] | 4 | 0 | 90 | 100 | 100 | 25 | 90
